Experiment [1] has as its target T1, human CaSR (Homo sapiens, UniProt P41180).
T1 sequence (P41180 20-1078): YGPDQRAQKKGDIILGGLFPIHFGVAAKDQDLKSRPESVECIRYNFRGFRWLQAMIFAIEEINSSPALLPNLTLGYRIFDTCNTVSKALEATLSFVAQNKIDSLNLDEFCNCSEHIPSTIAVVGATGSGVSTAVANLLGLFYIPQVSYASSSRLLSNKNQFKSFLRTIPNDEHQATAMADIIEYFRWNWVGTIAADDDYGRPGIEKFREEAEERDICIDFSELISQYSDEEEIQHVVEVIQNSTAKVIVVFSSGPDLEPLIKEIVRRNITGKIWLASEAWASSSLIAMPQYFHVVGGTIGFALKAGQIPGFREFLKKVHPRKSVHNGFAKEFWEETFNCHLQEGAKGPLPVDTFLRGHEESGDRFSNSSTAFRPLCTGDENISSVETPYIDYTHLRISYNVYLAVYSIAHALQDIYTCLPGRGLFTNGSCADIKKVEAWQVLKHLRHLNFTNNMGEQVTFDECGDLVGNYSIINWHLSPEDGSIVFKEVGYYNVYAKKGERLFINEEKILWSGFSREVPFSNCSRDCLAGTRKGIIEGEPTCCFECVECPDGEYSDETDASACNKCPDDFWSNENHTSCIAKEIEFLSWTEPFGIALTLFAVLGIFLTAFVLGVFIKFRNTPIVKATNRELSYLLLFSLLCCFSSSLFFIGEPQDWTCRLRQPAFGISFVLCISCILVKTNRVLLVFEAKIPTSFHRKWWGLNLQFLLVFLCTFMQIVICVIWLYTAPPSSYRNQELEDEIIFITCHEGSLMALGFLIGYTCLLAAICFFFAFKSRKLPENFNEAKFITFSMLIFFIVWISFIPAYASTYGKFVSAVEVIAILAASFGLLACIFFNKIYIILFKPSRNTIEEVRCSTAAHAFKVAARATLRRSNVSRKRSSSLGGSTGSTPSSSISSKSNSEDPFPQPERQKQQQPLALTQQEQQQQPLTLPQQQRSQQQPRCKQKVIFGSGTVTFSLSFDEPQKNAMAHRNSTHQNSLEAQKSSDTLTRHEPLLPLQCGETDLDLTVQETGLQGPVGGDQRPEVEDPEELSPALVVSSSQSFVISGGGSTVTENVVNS
As to the kind of experiment: CaSR binding assay (radioligand, HEK293 membranes). The note with it: radio-labeled compound used as ligand; read-out: apparent Kd. Further details: expressed in transfected cells; host or cells: HEK293 cell membranes. How it is done: Procedures for CaSR Binding Assay
Membrane preparations from HEK293 cells expressing the human CaSR were generated. The cells were cultured and then washed twice with 1×PBS. The cells were dissociated by adding 4 ml pre-warmed 0.25% Trypsin-EDTA, and by incubating the flask at RT for 3 minutes. 10 ml media was dispensed over the cell layer surface, and the cells were harvested into a centrifuge tube. The cells were centrifuged at 200×g for 10 minutes. The cell pellet was suspended in 30 ml of membrane preparation buffer and then homogenized on ice twice at 16000 rpm for 10 seconds. Following homogenization, the membrane was collected by centrifuge at 40000×g for 30 minutes at 4° C., washed twice with 30 ml membrane preparation buffer, and centrifuged again at 40000×g for 10 minutes. The membrane pellet was suspended in 30 ml membrane preparation buffer (50 mM Tris, pH7.0, 10 mM MgCl, Proteinase inhibitor (Roche, REF 04693116001), and then homogenized on ice once at 16000 rpm for 10 seconds. The total protein concentration was measured using a BCA kit. The membrane protein concentration was adjusted to 2.4 mg/ml and then diluted with binding buffer (10 mM HEPES, pH7.4, 130 mM NaCl, 0.4 mM CaCl2, 5 mM MgCl2, 1 mM EGTA, 10 mM glucose, 0.1% BSA) to 0.33 μg/μl. The final amount in the binding assay was 20 μg/well. Test compound was serially diluted manually by using BIOHIT multi-channel pipettor in 100% DMSO (10 point, 3-fold dilution of each compound from 5.0 μM in 100% DMSO). 4 μl of serially diluted compound was manually transferred into a second assay microplate that contained 196 μl of binding assay buffer to create the intermediate dilution plate. For background, 20 μl of assay buffer was added to each control well. […] The binding reaction used a 100 μl reaction volume consisting of 10 μl of test compound, 30 μl of diluted radio-labelled compound, and 60 μl of membrane solution (0.33 μg/μl). The reaction mixture was incubated at room temperature for one hour. The Grade GF/C filter plates were presoaked in 0.3% PEI (protect from light) for 60 minutes at room temperature. The plate was then washed three times with ice-cold wash buffer (25 mM Tris-HCl, PH7.4, 130 mM NaCl, 5 mM MgCl2, 0.4 mM CaCl2, 0.1% BSA) prior to filtration of the binding samples. The binding reaction was terminated by rapid filtration of 100 μl binding mixture through the GF/C plate. Plates were then washed 6 times with ice-cold wash buffer. Filter plates were dried with a hair dryer for 20 minutes. 60 μl/well MICROSCINT 20 (a cocktail for microplates) was added to the bottom of sealed filters, then the filters were sealed at the top with tape. Bound radioactivity was counted in a TOPCOUNT scintillation counter. Exemplary compounds bind in the 1-500 nM range.

The target in experiment [2] is T2, calcium sensing receptor (Homo sapiens, UniProt P41180).
T2 sequence (P41180 20-1078): T1 sequence (P41180 20-1078)
As to the kind of experiment: Calcium sensing receptor antagonist activity (test not specified).

SMILES strings stand for the structures.

Consider `CC(C)(CC1Cc2ccccc2C1)NC[C@@H](O)COc1cc(-c2ccc(C(=O)O)cc2)ccc1F` [Example 25, (R)-3′-(3-((1-(2,3-dihydro-1H-inden-2-yl)-2-methylpropan-2-yl)amino)-2-hydroxypropoxy)-4′-fluoro-[1,1′-biphenyl]-4-carboxylic acid], for which the Kd in experiment [1] came to 400 nM. In addition, the “calcium sensing receptor antagonist activity” value in experiment [2] was “shows calcium sensing receptor antagonist activity”.

These data come from patent publication US20160311791A1, “NOVEL TRICYCLIC CALCIUM SENSING RECEPTOR ANTOGONISTS FOR THE TREATMENT OF OSTEOPOSOSIS” (MERCK SHARP & DOHME CORP., priority 2013, published 2016).
